Reference: US20200397764A1, “VAP-1 INHIBITORS FOR TREATING PAIN” (BENEVOLENTAI CAMBRIDGE LIMITED, priority 2015, published 2020)

Key:
[1] = test system: CFA induced hypersensitivity; assay: CFA induced hypersensitivity in rat, weight bearing (incapacitance tester); type: in vivo; conditions: for reversal of CFA induced hypersensitivity (weight bearing) / inhibition of the hypersensitivity response (weight bearing): rat
Experimental: (§1) Assessment of the anti-hyperalgesic properties of (3S)-tetrahydrofuran-3-yl (4S)-4-isopropyl-1,4,6,7-tetrahydro-5H-imidazo[4,5-c]pyridine-5-carboxylate mesylate salt was determined through measurement of weight bearing following CFA induced hypersensitivity. Naive rats distribute their body weight equally between the two hind paws. However, when the injected (left) hind paw is painful, the weight is re-distributed so that less weight is put on the affected paw (decrease in weight bearing on injured paw). Weight bearing through each hind limb was measured using a rat incapacitance tester (Linton Instruments, UK). Rats were placed in the incapacitance tester with the hind paws on separate sensors and the average force exerted by both hind limbs was recorded over 4 seconds. The injection of CFA also induces an oedema that can be assessed by paw volume; this is measured using a plethysmometer. The rat's hind paw is placed into the cylinder containing a solution and the volume of displaced liquid determines the paw volume.
Naive male, Sprague Dawley rats were acclimatised with food and water available ad libitum. Habituation to the incapacitance tester was performed. Baseline weight bearing and paw volume recordings were taken prior to induction of insult. Inflammatory hypersensitivity was induced by intraplantar injection of CFA (100μl of 1 mg/ml solution) into the left hind paw. A pre-treatment weight bearing and paw volume measurement was taken to assess hypersensitivity 23 hours post-CFA. Animals were then ranked and randomised according to CFA window in a Latin square design. […] (dosed in water at 2 mL/Kg, pH ˜5-6), alongside vehicle and reference group (indomethacin), n=9-10 per group. Weight bearing was assessed in all groups 1, 2 and 4 hours post compound administration. Paw volume was assessed 4 hours post compound administration. Data was analysed by comparing treatment groups to control group at each time point. Weight bearing (g) readings were taken for both right and left hind paws and the difference calculated. Data is expressed as % reversal of the hypersensitivity to pain, (post dose reading—pre dose reading)/(naïve reading—pre dose reading)×100, where naive weight bearing difference—pre dose weight bearing difference is defined as the CFA window to be reversed Statistical analysis was conducted by means of repeated measures ANOVA followed by Planned comparison test using InVivoStat (invivostat.co.uk), (p<0.05 considered significant).
as §1, with “of (S)-Carbidopa” for “of (3S)-tetrahydrofuran-3-yl (4S)-4-isopropyl-1,4,6,7-tetrahydro-5H-imidazo[4,5-c]pyridine-5-carboxylate mesylate salt”, “the Incapacitance” for “the incapacitance”
Naive male, Sprague Dawley rats were acclimatised with food and water available ad libitum. Habituation to the incapacitance tester was performed. Baseline weight bearing and paw volume recordings were taken prior to induction of insult. Inflammatory hypersensitivity was induced by intraplantar injection of CFA (100 μl of 1 mg/ml solution) into the left hind paw.

[2] = test system: CFA induced oedema; assay: CFA induced oedema in rat, paw volume (plethysmometer); type: in vivo
Experimental: as §1, with “The rat's hind paw is placed into the cylinder containing a solution and the volume of displaced liquid determines the paw volume.” left out
Naive male, Sprague Dawley rats were acclimatised with food and water available ad libitum. […] Weight bearing was assessed in all groups 1, 2 and 4 hours post compound administration. […] Data was analysed by comparing treatment groups to control group at each time point. Weight bearing (g) readings were taken for both right and left hind paws and the difference calculated. […]
Data Is expressed as % reversal of the hypersensitivity to pain. Paw Volume (mL) readings were taken for the left hind paws. […]

[3] = test system: CCI induced neuropathic pain; assay: Chronic Constriction Injury (CCI) model of neuropathic pain, mechanical allodynia (von-Frey); type: in vivo, rat
Excerpt: The Chronic Constriction Injury (CCI) model of neuropathic pain involves unilateral loose ligation of four ligatures around the left sciatic nerve at mid-thigh level spaced 1 mm apart. This procedure results in the development of hyperalgesia, allodynia and spontaneous pain (ectopic discharges) which can be measured using mechanical and thermal behavioural assessments. As such, this model is believed to mimic some of the symptoms and aetiology of neuropathic pain observed in the clInic (Bennett G J and Xie Y K., 1988; Field et al., 1999).
Naive male Sprague Dawley rats weighing 200-250 g were acclimatised to the procedure room in their home cages, with food and water available ad libitum. All animals underwent behavioural testing of mechanical allodynia prior to surgery in order to determine the baseline withdrawal thresholds. The average of the last two (out of three) baseline paw-withdrawal thresholds to stimulation with von-Frey hairs was taken as the baseline.
Under Isoflurane anaesthesia mixed with oxygen […] the left hind leg was shaved mid-thigh level and an incision made through the skin using a scalpel. The biceps femoris muscle layer was dissected by making an initial incision using a pair of sharp scissors, which was then widened using a pair of blunt scissors. The common sciatic nerve was exposed using a pair of forceps and 4 loose ligatures of chromic gut (SMI) were tied around the sciatic nerve with 1 mm spacing between each. The nerve was then returned below the muscle layer and the wound closed using absorbable sutures (Vicryl).
Behavioural testing started 19 days post-surgery with mechanical readings taken on day 19, and day 22. […]
On day 23, animals were treated orally with either Vehicle (30% aqueous hydroxypropyl-beta-cyclodextrin), 4-{5-[3-(4-Fluorophenyl)-3H-imidazo[4,5-c]pyridin-2-yl]pyridin-2-yl}morpholine 15, 50 and 150 mg/kg (5 mL/kg dose volume), or Pregabalin 30 mg/kg (2 mL/kg dose volume in water). Paw withdrawal thresholds (PWT) from each of the animals (mechanical von-Frey, mvF) were evaluated at 1 and 3 hours post dosing.
Static mechanical (tactile) allodynia: Measurement of withdrawal threshold was achieved using calibrated (force; g) von-Frey monofilaments (Touch-Test Sensory Evaluator; Scientific Marketing Associates) applied to the plantar surface of the hindpaw. Withdrawal threshold was determined by increasing and decreasing stimulus intensity, and estimated using the Dixon's up-down method (Dixon, 1980; Chaplan et al., 1994). […]
Mechanical allodynia (von Frey) data were analysed using two-way repeated measures ANOVA with ‘treatment’ as a between subjects effect and ‘day’ as a within subjects effect. […]

[4] = oral 10 mg/kg, 1 and 4 hours post administration
[5] = oral 1, 3 and 10 mg/kg, 24 hours post CFA, 1 and 4 hours post treatment

## COc1ccc2c(c1)c(CC(=O)O)c(C)n2C(=O)c1ccc(Cl)cc1 [indomethacin, reference compound]
[1]; 10 mg/kg, 24 hours post CFA, reference
  reversal of CFA induced hypersensitivity (weight bearing): marked reversal of the hypersensitivity

## CC(C)[C@H]1c2nc[nH]c2CCN1C(=O)O[C@H]1CCOC1 [(3S)-Tetrahydrofuran-3-yl (4S)-4-isopropyl-1,4,6,7-tetrahydro-5H-imidazo[4,5-c]pyridine-5-carboxylate]
[1]; rat, 150, 250 and 500 mg/kg p.o., compared with indomethacin 10 mg/kg, FIG. 1
  efficacy in CFA hyperalgesia model (reversal of hypersensitivity): effective in a dose-dependent manner, and comparably in efficacy to the gold standard benchmark indomethacin

## CC(C)[C@H]1c2nc[nH]c2CCN1C(=O)O[C@H]1CCOC1.CS(=O)(=O)O [(3S)-tetrahydrofuran-3-yl (4S)-4-isopropyl-1,4,6,7-tetrahydro-5Himidazo[4,5-c]pyridine-5-carboxylate mesylate salt]
[2]; rat, 150, 250 and 500 mg/kg p.o., 4 hours post compound administration
  effect on paw volume: No effect

## Fc1ccc(-n2c(-c3ccc(N4CCOCC4)nc3)nc3ccncc32)cc1 [4-{5-[3-(4-Fluorophenyl)-3H-imidazo[4,5-c]pyridin-2-yl]pyridin-2-yl}morpholine]
[3]; rat CCI, 50 mg/kg p.o., vs the vehicle group
  withdrawal threshold (von-Frey mechanical allodynia): reaching statistical significance at 3 h
[3]; rat CCI, 150 mg/kg p.o., vs the vehicle group
  withdrawal threshold (von-Frey mechanical allodynia): reaching statistical significance vs the vehicle group at 1 h and 3 h
[3]; rat CCI, 15, 50 and 150 mg/kg p.o., 1 and 3 hours post dosing, FIG. 9
  withdrawal threshold (von-Frey mechanical allodynia): increased withdrawal threshold in a dose and temporally dependent fashion

## CC(=O)N1CCN(c2ccc(-c3nc4ccncc4n3-c3ccc(F)cc3)cn2)CC1 [Compound 2, 1-(4-{5-[3-(4-Fluorophenyl)-3H-imidazo[4,5-c]pyridin-2-yl]pyridin-2-yl}piperazin-1-yl)ethan-1-one]
[1]; [4]
  inhibition of the hypersensitivity response (weight bearing): significantly inhibiting the hyperactivity response at both 1 and 4 hours post administration
[1]; [5]
  inhibition of the hypersensitivity response (weight bearing): dose-dependently inhibited the hypersensitivity response

## CC(C)C[C@H](CN)CC(=O)O [Pregabalin, reference compound]
[3]; rat CCI, 30 mg/kg p.o., day 23 post-surgery, reference
  withdrawal threshold (von-Frey mechanical allodynia): increased the withdrawal threshold to a degree that was comparable with those animals that had undergone sham surgery

## CS(=O)(=O)N1CCN(c2ccc(-c3nc4ccncc4n3-c3ccc(F)cc3)cn2)CC1 [1-{5-[3-(4-Fluorophenyl)-3H-imidazo[4,5-c]pyridin-2-yl]pyridin-2-yl}-4 methanesulfonylpiperazine]
[1]; oral 3 mg/kg, 1 and 4 hours post administration
  inhibition of the hypersensitivity response (weight bearing): significant reduction at 4 hours post administration
[1]; [4]
  inhibition of the hypersensitivity response (weight bearing): significantly inhibiting the hyperactivity response at both 1 and 4 hours post administration
[1]; [5]
  inhibition of the hypersensitivity response (weight bearing): dose-dependently inhibited the hypersensitivity response

## CC(C)[C@H]1c2nc[nH]c2CCN1C(=O)O[C@H]1CCOC1.CS(=O)(=O)O [(3S) Tetrahydrofuran-3-yl (4S)-4-isopropyl-1,4,6,7-tetrahydro-5H-imidazo[4,5-c]pyridine-5-carboxylate mesylate salt]
[1]; 150 mg/kg p.o., 1, 2 and 4 hours post dose
  reversal of CFA induced hypersensitivity (weight bearing): no significant reversal of hypersensitivity at any time point
[1]; 250 mg/kg p.o., 1, 2 and 4 hours post dose
  reversal of CFA induced hypersensitivity (weight bearing): significant reversal at 4 hours
[1]; 500 mg/kg p.o., 1, 2 and 4 hours post dose
  reversal of CFA induced hypersensitivity (weight bearing): effective at all time points with maximum effect seen at 4 hours post dose

## C[C@]12C=CC(=O)C=C1CC[C@@H]1[C@@H]2[C@@H](O)C[C@@]2(C)[C@H]1CC[C@]2(O)C(=O)CO [Prednisolone, reference compound]
[1]; Part A, 0.3-10 mg/kg alone, 1 and 3 hours post treatment, FIG. 3
  inhibition of the hypersensitivity response (weight bearing): dose-dependently inhibited the hypersensitivity response

## C[C@@](Cc1ccc(O)c(O)c1)(NN)C(=O)O [(S)-Carbidopa, reference compound]
[2]; rat, Part B, 3-100 mg/kg, 3 hours post treatment, FIG. 5
  effect on oedema (paw volume): no effect on oedema
[1]; Part B, 3-100 mg/kg alone, 1 and 3 hours post treatment, FIG. 4
  inhibition of the hypersensitivity response (weight bearing): dose-dependently inhibited the hypersensitivity response
